Patent publication US8546320B2, “Hsp9O-targeted anti-cancer chimeric peptide” (Kyoto University, priority 2008, dated 2013)
Where a SMILES comes first, the peptide text is derived from it.

How the values were obtained:
Caki-1 = format: cell-based, human; conditions: Caki-1; for Anti-cancer activity (% relative to wild-type peptide) / Decrease in cell survival rate (% relative to wild-type peptide): wild-type peptide = 100%
U937 = experiment: cells; format: cell-based, human; conditions: for killing effect compared with the wild-type peptide / Anti-cancer activity (% relative to wild-type peptide) / Decrease in cell survival rate (% relative to wild-type peptide): U937; for Anti-cancer activity (% relative to wild-type peptide) / Decrease in cell survival rate (% relative to wild-type peptide): wild-type peptide = 100%
Description: A total of 3×10^3 cells per well were inoculated onto a 96 well plate, and incubated in a medium containing 10% FBS with 100 μl of a peptide diluted stepwise at 37° C. for 48 to 72 hours. The survival rate of the cells was measured by using WST-8 solution (Cell Count Reagent SF; Nacalai Tesque, Inc.).

cancer cells = experiment: Cell viability assay, summary statements on cancer cells; format: cell-based; conditions: single mutation in TPR or Antp region of Antp-TPR

Structure (SMILES)	Anti-cancer activity (% relative to wild-type peptide) (Caki-1)	Decrease in cell survival rate (% relative to wild-type peptide) (Caki-1)	Cell Survival Rate (%) (U937)	killing effect compared with the wild-type peptide (U937)	Anti-cancer activity (% relative to wild-type peptide) (U937)	Decrease in cell survival rate (% relative to wild-type peptide) (U937)	effect compared with the wild-type protein (summary of mutations) (cancer cells)	killing effect compared with the wild-type peptide (Caki-1)
CC[C@H](C)[C@H](NC(=O)[C@H](CCCNC(=N)N)NC(=O)[C@H](C)NC(=O)[C@H](Cc1ccc(O)cc1)NC(=O)[C@H](C)NC(=O)[C@H](CCCCN)NC(=O)[C@H](CCCCN)NC(=O)[C@H](CCCCN)NC(=O)[C@H](Cc1c[nH]c2ccccc12)NC(=O)[C@H](CCCCN)NC(=O)[C@H](CCSC)NC(=O)[C@H](CCCNC(=N)N)NC(=O)[C@H](CCCNC(=N)N)NC(=O)[C@H](CC(N)=O)NC(=O)[C@H](CCC(N)=O)NC(=O)[C@H](Cc1ccccc1)NC(=O)[C@H](Cc1c[nH]c2ccccc12)NC(=O)[C@@H](NC(=O)[C@H](CCCCN)NC(=O)[C@@H](NC(=O)[C@H](CCC(N)=O)NC(=O)[C@@H](N)CCCNC(=N)N)[C@@H](C)CC)[C@@H](C)CC)C(=O)NCC(=O)N[C@@H](CCC(N)=O)C(=O)N[C@@H](CO)C(=O)N[C@@H](Cc1ccc(O)cc1)C(=O)N[C@@H](Cc1ccccc1)C(=O)N[C@@H](CCCCN)C(=O)O [Antp-N8Q] (H-RQIKIWFQNRRMKWKKKAYARIGQSYFK-OH; N-terminus and C-terminus assumed)	98.57%	89.35%	10.06%	increase in effect	117.17%	230.94%	effect higher than the wild-type protein	
CC[C@H](C)[C@H](NC(=O)[C@H](CCCCN)NC(=O)[C@H](C)NC(=O)[C@H](Cc1ccc(O)cc1)NC(=O)[C@H](C)NC(=O)[C@H](CCCCN)NC(=O)[C@H](CCCCN)NC(=O)[C@H](CCCCN)NC(=O)[C@H](Cc1c[nH]c2ccccc12)NC(=O)[C@H](CCCCN)NC(=O)[C@H](CCSC)NC(=O)[C@H](CCCNC(=N)N)NC(=O)[C@H](CCCNC(=N)N)NC(=O)[C@H](CC(N)=O)NC(=O)[C@H](CCC(N)=O)NC(=O)[C@H](Cc1ccccc1)NC(=O)[C@H](Cc1c[nH]c2ccccc12)NC(=O)[C@@H](NC(=O)[C@H](CCCCN)NC(=O)[C@@H](NC(=O)[C@H](CCC(N)=O)NC(=O)[C@@H](N)CCCNC(=N)N)[C@@H](C)CC)[C@@H](C)CC)C(=O)NCC(=O)N[C@@H](CC(N)=O)C(=O)N[C@@H](CO)C(=O)N[C@@H](Cc1ccc(O)cc1)C(=O)N[C@@H](Cc1ccccc1)C(=O)N[C@@H](CCCCN)C(=O)O [Antp-R5K] (H-RQIKIWFQNRRMKWKKKAYAKIGNSYFK-OH; N-terminus and C-terminus assumed)	6.58%	11.34%	92.57%		9.68%	25.10%	effective but with a lower effect than the wild-type protein	
CC[C@H](C)[C@H](NC(=O)[C@H](CCCNC(=N)N)NC(=O)[C@H](C)NC(=O)[C@H](Cc1ccc(O)cc1)NC(=O)CNC(=O)[C@H](CCCCN)NC(=O)[C@H](CCCCN)NC(=O)[C@H](CCCCN)NC(=O)[C@H](Cc1c[nH]c2ccccc12)NC(=O)[C@H](CCCCN)NC(=O)[C@H](CCSC)NC(=O)[C@H](CCCNC(=N)N)NC(=O)[C@H](CCCNC(=N)N)NC(=O)[C@H](CC(N)=O)NC(=O)[C@H](CCC(N)=O)NC(=O)[C@H](Cc1ccccc1)NC(=O)[C@H](Cc1c[nH]c2ccccc12)NC(=O)[C@@H](NC(=O)[C@H](CCCCN)NC(=O)[C@@H](NC(=O)[C@H](CCC(N)=O)NC(=O)[C@@H](N)CCCNC(=N)N)[C@@H](C)CC)[C@@H](C)CC)C(=O)NCC(=O)N[C@@H](CC(N)=O)C(=O)N[C@@H](CO)C(=O)N[C@@H](Cc1ccc(O)cc1)C(=O)N[C@@H](Cc1ccccc1)C(=O)N[C@@H](CCCCN)C(=O)O [Antp-A2G] (H-RQIKIWFQNRRMKWKKKGYARIGNSYFK-OH; N-terminus and C-terminus assumed)	100.70%	105.96%	13.90%	increase in effect	112.17%	167.23%	effect higher than the wild-type protein	
CC[C@H](C)[C@H](NC(=O)[C@H](CCCNC(=N)N)NC(=O)[C@H](C)NC(=O)[C@H](Cc1ccc(O)cc1)NC(=O)[C@H](C)NC(=O)[C@H](CCCCN)NC(=O)[C@H](CCCCN)NC(=O)[C@H](CCCCN)NC(=O)[C@H](Cc1c[nH]c2ccccc12)NC(=O)[C@H](CCCCN)NC(=O)[C@H](CCSC)NC(=O)[C@H](CCCNC(=N)N)NC(=O)[C@H](CCCNC(=N)N)NC(=O)[C@H](CC(N)=O)NC(=O)[C@H](CCC(N)=O)NC(=O)[C@H](Cc1ccccc1)NC(=O)[C@H](Cc1c[nH]c2ccccc12)NC(=O)[C@@H](NC(=O)[C@H](CCCCN)NC(=O)[C@@H](NC(=O)[C@H](CCC(N)=O)NC(=O)[C@@H](N)CCCNC(=N)N)[C@@H](C)CC)[C@@H](C)CC)C(=O)NCC(=O)N[C@@H](CC(N)=O)C(=O)N[C@@H](CO)C(=O)N[C@@H](Cc1ccc(O)cc1)C(=O)N[C@@H](Cc1ccc(O)cc1)C(=O)N[C@@H](CCCCN)C(=O)O [Antp-F11Y] (H-RQIKIWFQNRRMKWKKKAYARIGNSYYK-OH; N-terminus and C-terminus assumed)	110.50%	820.08%	1.10%	increase in effect	128.84%	2116.95%	effect higher than the wild-type protein	stronger than that of the wild-type peptide
CC[C@H](C)[C@H](NC(=O)[C@H](CCCNC(=N)N)NC(=O)[C@H](C)NC(=O)[C@H](CC(C)C)NC(=O)[C@H](C)NC(=O)[C@H](CCCCN)NC(=O)[C@H](CCCCN)NC(=O)[C@H](CCCCN)NC(=O)[C@H](Cc1c[nH]c2ccccc12)NC(=O)[C@H](CCCCN)NC(=O)[C@H](CCSC)NC(=O)[C@H](CCCNC(=N)N)NC(=O)[C@H](CCCNC(=N)N)NC(=O)[C@H](CC(N)=O)NC(=O)[C@H](CCC(N)=O)NC(=O)[C@H](Cc1ccccc1)NC(=O)[C@H](Cc1c[nH]c2ccccc12)NC(=O)[C@@H](NC(=O)[C@H](CCCCN)NC(=O)[C@@H](NC(=O)[C@H](CCC(N)=O)NC(=O)[C@@H](N)CCCNC(=N)N)[C@@H](C)CC)[C@@H](C)CC)C(=O)NCC(=O)N[C@@H](CC(N)=O)C(=O)N[C@@H](CO)C(=O)N[C@@H](Cc1ccc(O)cc1)C(=O)N[C@@H](Cc1ccccc1)C(=O)N[C@@H](CCCCN)C(=O)O [Antp-Y3L] (H-RQIKIWFQNRRMKWKKKALARIGNSYFK-OH; N-terminus and C-terminus assumed)	52.87%	20.23%	60.94%		50.89%	38.14%	effective but with a lower effect than the wild-type protein	
CC[C@H](C)[C@H](NC(=O)[C@H](CCCNC(=N)N)NC(=O)[C@H](C)NC(=O)[C@H](Cc1ccc(O)cc1)NC(=O)[C@H](C)NC(=O)[C@H](CCCCN)NC(=O)[C@H](CCCCN)NC(=O)[C@H](CCCCN)NC(=O)[C@H](Cc1c[nH]c2ccccc12)NC(=O)[C@H](CCCCN)NC(=O)[C@H](CCSC)NC(=O)[C@H](CCCNC(=N)N)NC(=O)[C@H](CCCNC(=N)N)NC(=O)[C@H](CC(N)=O)NC(=O)[C@H](CCC(N)=O)NC(=O)[C@H](Cc1ccccc1)NC(=O)[C@H](Cc1c[nH]c2ccccc12)NC(=O)[C@@H](NC(=O)[C@H](CCCCN)NC(=O)[C@@H](NC(=O)[C@H](CCC(N)=O)NC(=O)[C@@H](N)CCCNC(=N)N)[C@@H](C)CC)[C@@H](C)CC)C(=O)NCC(=O)N[C@@H](CC(N)=O)C(=O)N[C@@H](Cc1ccc(O)cc1)C(=O)N[C@@H](Cc1ccc(O)cc1)C(=O)N[C@@H](Cc1ccccc1)C(=O)N[C@@H](CCCCN)C(=O)O [Antp-S9Y] (H-RQIKIWFQNRRMKWKKKAYARIGNYYFK-OH; N-terminus and C-terminus assumed)	106.80%	232.05%	12.73%	increase in effect	113.69%	182.60%	effect higher than the wild-type protein	stronger than that of the wild-type peptide
CC[C@H](C)[C@H](NC(=O)[C@H](CCCNC(=N)N)NC(=O)CNC(=O)[C@H](Cc1ccc(O)cc1)NC(=O)[C@H](C)NC(=O)[C@H](CCCCN)NC(=O)[C@H](CCCCN)NC(=O)[C@H](CCCCN)NC(=O)[C@H](Cc1c[nH]c2ccccc12)NC(=O)[C@H](CCCCN)NC(=O)[C@H](CCSC)NC(=O)[C@H](CCCNC(=N)N)NC(=O)[C@H](CCCNC(=N)N)NC(=O)[C@H](CC(N)=O)NC(=O)[C@H](CCC(N)=O)NC(=O)[C@H](Cc1ccccc1)NC(=O)[C@H](Cc1c[nH]c2ccccc12)NC(=O)[C@@H](NC(=O)[C@H](CCCCN)NC(=O)[C@@H](NC(=O)[C@H](CCC(N)=O)NC(=O)[C@@H](N)CCCNC(=N)N)[C@@H](C)CC)[C@@H](C)CC)C(=O)NCC(=O)N[C@@H](CC(N)=O)C(=O)N[C@@H](CO)C(=O)N[C@@H](Cc1ccc(O)cc1)C(=O)N[C@@H](Cc1ccccc1)C(=O)N[C@@H](CCCCN)C(=O)O [Antp-A4G] (H-RQIKIWFQNRRMKWKKKAYGRIGNSYFK-OH; N-terminus and C-terminus assumed)	108.40%	333.52%	11.42%		115.40%	203.46%	effect higher than the wild-type protein	stronger than that of the wild-type peptide
